From patent US20100216779A1 (GLAXOSMITHKLINE LLC, priority 2007, published 2010) come the findings set out here.

The target of one experiment is T1, human IGF1R (hIGF1R) (Homo sapiens, UniProt P08069).
T1 construct: containing amino acid residues 957-1367 of human IGF1R; made in house; host or cells: Sf9 cells, baculovirus
Kind of experiment: IGF1R TR-FRET assay using peptide as the phosphoacceptor. Type of experiment: biochemical. The note with it: 10 μM ATP, 0.5 nM activated enzyme; for IC50: read-out: IGF-1R pIC50 (converted). The procedure: A. IR and IGF1 R Time Resolved Fluorescence Resonance Energy Transfer (TR-FRET) Assay Using Peptide as the Phosphoacceptor
Substrate phosphorylation assays are carried out as follows:
The Source of Substrate Peptide
The biotinylated substrate peptide, (sequence-Biotin-aminohexyl-AEEEEY*[…]-NH2) SEQ. ID. 1 is purchased from QCB, Inc. (Hopkinton, Mass.). Purity is determined by HPLC. The calculated molecular mass of the peptide is 2216 dalton. Tyrosine phosphorylation by human IGF1R (hIGF1R) or human IR (hIR) occurs as indicated (Y*) in the peptide sequence described. Solid peptide sample is dissolved to approximately 1 mM in DMSO, aliquoted, and stored at −20° C. until use. True peptide concentration is determined by amino acid analysis.
The Source of Enzyme: • hIGF1R: GST-rTEV-IGF-1R (957-1367) containing amino acid residues 957-1367 of human IGF1R (as annotated by National Center for Biotechnology Information (NCBI) accession number NP_000866) is purified from a baculovirus expression system in Sf9 cells using Glutathione Sepharose 4FF column chromatography followed by Sephadex-200 size exclusion column chromatography. Enzyme purity of approximately 95% is achieved. Samples, in 25 mM Tris-HCl, 250 mM NaCl, 5% glycerol, 1 mM DTT, pH 7.5, are stored at −80° C. until use. • hIR: GST-rTEV-IR(979-1382) containing amino acid residues 979-1382 of human IR (as annotated by NCBI accession number NP_000199) is expressed and purified by the same process as hIGF1R. Enzyme purity of approximately 92% is achieved. Samples, in 25 mM Tris-HCl, 250 mM NaCl, 5% glycerol, 1 mM DTT, pH 7.5, are stored at −80° C. until use.
Activation of hIGF1R and hIR by Autophosphorylation: • hIGF1R: Activation of GST-rTEV-IGF-1R(957-1367) is achieved by a 4 minute incubation of hIGF1R (2.7 μM final) with 2 mM ATP in 50 mM HEPES, 20 mM MgCl2, 0.1 mg/mL BSA, at room temperature. Autophosphorylation is stopped by addition of EDTA (to 100 mM final). Aliquoted samples are flash frozen in liquid nitrogen and stored at −80° C. until use. • hIR: Activation of […] is achieved by a 5 minute incubation of hIR (2.7 μM final) with 2 mM ATP in 100 mM HEPES, 10 mM MgCl2, 0.1 mg/mL BSA, at room temperature. Autophosphorylation is stopped by addition of EDTA (to 100 mM final). Aliquoted samples are flash frozen in liquid nitrogen and stored at −80° C. until use. • Kinase Assay of Purified hIGF1R or hIR:
Assays are performed in 384-well (Greiner, Catalog No. 784076) microtiter plates. Reaction buffer (50 mM HEPES buffer, pH 7.5; 10 mM MgCl2; 3 mM DTT; 1 mM CHAPS; 0.1 mg/mL BSA) for peptide phosphorylation (10 μl volume) contained, in final concentrations, 500 nM biotinylated peptide substrate; 10 μM ATP; and purified, activated hIGF1R or hIR (0.5 nM). Some compounds were initially assayed against IGF1R in buffer without DTT or CHAPS. […] Compounds, titrated in DMSO, are evaluated at eleven concentrations ranging from 50 μM to 0.2 nM. […] No effect on activity relative to controls without DMSO is observed for hIGF1R or IR at these DMSO amounts. Reactions are incubated for 1 hour at room temperature and are stopped by a 5 μl addition of EDTA (to 33 mM). A further addition of 5 μl detection reagents (for final 7 nM Streptavidin-APC (PerkinElmer #CR130-150), 1 nM Europium-labeled anti-phosphotyrosine monoclonal antibody (PerkinElmer #AD0067), added in reaction buffer (without DTT), is required for signal generation. After 30 minutes, signal is read on PerkinElmer Viewlux microplate imager or Wallac Victor fluorometer.
Data were fitted to the curve described by:
y=((Vmax*x)/(K+x)) where • Vmax is the upper asymptote and • K is the IC50.
The results for each tested compound were recorded as pIC50 calculated as follows: […]
Background: Time-resolved FRET reads energy transfer from a long-lived donor to a nearby acceptor.

Experiment [1] deals with T2, human IGF-1R (NIH-3T3 cells over expressing human IGF-1R) (Homo sapiens, UniProt P08069).
T2 construct: expressed in transfected cells; host or cells: NIH-3T3 (mouse fibroblasts)
Kind of experiment: IGF-1R cellular autophosphorylation (DELFIA). In kind it is cell-based. The note with it: IGF-1 stimulated. Summed up: (§1)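 Read-out: DELFIA on lysates, receptor-specific capture antibody plus europium-labelled anti-phosphotyrosine, reported as % of IGF-1- or insulin-stimulated signal. Transfected NIH-3T3 cells got compound (30 uM–1.5 nM, 2 h) before a 15 min ligand pulse: IGF-1 30 ng/mL for IGF-1R, insulin 3 ug/mL for IR.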

The next experiment deals with T3, human IR (hIR) (Homo sapiens, UniProt P06213).
T3 construct: containing amino acid residues 979-1382 of human IR; GST (N); rTEV protease site (linker between GST and kinase) (N); made in house; host or cells: Sf9 cells, baculovirus (same process as hIGF1R)
Kind of experiment: IR TR-FRET assay using peptide as the phosphoacceptor. Type of experiment: biochemical. The note with it: 10 μM ATP, 0.5 nM activated enzyme; for IC50: read-out: IR pIC50 (converted).

In experiment [2] the target is T4, IR (NIH-3T3 cells over expressing human IGF-1R or IR) (Homo sapiens, UniProt P06213).
T4 construct: expressed in transfected cells; host or cells: NIH-3T3 (mouse fibroblasts)
The experiment can be described thus: IR cellular autophosphorylation (DELFIA). The following applies: NIH-3T3 cells over expressing IR, insulin stimulated. Type of experiment: cell-based. The method in brief:
as §1

For another experiment, the system named is COLO205 (colon). The experiment can be described thus: Inhibition of cell proliferation, CellTiter-Glo, COLO205. Type of experiment: cell-based. The note with it: Homo sapiens, COLO 205, 72 h. Summed up:
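Exponentially growing COLO205 cells in medium with 10% FBS were plated below 2000 cells/well at 37 °C, 5% CO2. Untreated wells served as controls.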

Experiment [3] deals with NCI-H929 (multiple myeloma). The experiment can be described thus: Inhibition of cell proliferation, CellTiter-Glo, NCI-H929. In kind it is cell-based. The following applies: Homo sapiens, 72 h. Summed up: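 Cells were grown in medium with 10% FBS at 37° C, 5% CO2. Cell number was read as CellTiter-Glo luminescence (cellular ATP), with untreated wells as control.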
(In general: Cellular ATP, detected with luciferase, serves as a proxy for viable cell number.)

T3 sequence (P06213 979-1382): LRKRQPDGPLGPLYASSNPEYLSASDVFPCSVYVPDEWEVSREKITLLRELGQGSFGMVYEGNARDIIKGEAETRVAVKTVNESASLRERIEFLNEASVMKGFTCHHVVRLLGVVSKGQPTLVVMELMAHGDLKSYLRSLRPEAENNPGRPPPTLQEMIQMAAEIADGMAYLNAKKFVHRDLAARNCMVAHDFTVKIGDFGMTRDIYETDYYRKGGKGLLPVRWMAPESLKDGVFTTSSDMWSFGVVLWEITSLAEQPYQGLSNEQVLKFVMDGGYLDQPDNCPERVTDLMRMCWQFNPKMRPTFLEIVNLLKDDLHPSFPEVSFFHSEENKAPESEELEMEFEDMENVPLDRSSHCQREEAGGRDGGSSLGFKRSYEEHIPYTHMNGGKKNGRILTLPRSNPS
T4 sequence (P06213 28-1382): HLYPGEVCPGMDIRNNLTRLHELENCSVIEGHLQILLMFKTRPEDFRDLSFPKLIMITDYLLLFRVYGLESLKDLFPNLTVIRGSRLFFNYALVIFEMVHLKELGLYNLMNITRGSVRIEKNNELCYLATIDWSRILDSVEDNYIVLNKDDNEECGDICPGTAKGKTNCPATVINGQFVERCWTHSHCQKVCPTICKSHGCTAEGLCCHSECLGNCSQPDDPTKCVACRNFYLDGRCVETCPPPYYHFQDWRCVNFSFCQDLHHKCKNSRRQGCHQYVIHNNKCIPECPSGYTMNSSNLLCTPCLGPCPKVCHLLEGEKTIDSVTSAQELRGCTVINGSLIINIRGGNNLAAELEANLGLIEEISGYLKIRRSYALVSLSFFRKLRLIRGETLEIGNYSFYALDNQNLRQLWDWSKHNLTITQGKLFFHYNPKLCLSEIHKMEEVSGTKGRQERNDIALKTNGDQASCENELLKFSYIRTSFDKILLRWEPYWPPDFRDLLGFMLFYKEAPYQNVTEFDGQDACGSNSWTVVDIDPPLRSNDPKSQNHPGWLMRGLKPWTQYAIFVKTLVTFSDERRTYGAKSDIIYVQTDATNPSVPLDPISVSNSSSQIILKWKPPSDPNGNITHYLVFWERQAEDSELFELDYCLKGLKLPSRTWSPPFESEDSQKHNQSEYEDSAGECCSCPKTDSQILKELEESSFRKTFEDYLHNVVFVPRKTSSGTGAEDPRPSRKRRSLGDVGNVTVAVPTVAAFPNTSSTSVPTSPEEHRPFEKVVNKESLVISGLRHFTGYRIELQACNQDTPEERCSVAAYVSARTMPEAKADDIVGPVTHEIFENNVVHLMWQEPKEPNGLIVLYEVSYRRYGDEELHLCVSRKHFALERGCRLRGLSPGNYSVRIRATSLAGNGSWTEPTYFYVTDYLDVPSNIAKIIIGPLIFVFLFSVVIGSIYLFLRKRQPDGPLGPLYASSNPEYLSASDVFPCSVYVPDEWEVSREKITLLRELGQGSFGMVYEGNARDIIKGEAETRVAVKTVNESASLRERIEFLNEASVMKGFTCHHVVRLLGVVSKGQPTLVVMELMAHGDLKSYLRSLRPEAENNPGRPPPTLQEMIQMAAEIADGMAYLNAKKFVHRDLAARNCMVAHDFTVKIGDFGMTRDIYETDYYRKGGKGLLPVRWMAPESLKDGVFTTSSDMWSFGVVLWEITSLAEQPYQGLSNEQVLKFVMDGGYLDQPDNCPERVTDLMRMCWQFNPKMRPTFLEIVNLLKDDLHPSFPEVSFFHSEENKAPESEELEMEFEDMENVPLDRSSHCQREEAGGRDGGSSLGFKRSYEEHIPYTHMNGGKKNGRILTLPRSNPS
T2 sequence (P08069 31-1367): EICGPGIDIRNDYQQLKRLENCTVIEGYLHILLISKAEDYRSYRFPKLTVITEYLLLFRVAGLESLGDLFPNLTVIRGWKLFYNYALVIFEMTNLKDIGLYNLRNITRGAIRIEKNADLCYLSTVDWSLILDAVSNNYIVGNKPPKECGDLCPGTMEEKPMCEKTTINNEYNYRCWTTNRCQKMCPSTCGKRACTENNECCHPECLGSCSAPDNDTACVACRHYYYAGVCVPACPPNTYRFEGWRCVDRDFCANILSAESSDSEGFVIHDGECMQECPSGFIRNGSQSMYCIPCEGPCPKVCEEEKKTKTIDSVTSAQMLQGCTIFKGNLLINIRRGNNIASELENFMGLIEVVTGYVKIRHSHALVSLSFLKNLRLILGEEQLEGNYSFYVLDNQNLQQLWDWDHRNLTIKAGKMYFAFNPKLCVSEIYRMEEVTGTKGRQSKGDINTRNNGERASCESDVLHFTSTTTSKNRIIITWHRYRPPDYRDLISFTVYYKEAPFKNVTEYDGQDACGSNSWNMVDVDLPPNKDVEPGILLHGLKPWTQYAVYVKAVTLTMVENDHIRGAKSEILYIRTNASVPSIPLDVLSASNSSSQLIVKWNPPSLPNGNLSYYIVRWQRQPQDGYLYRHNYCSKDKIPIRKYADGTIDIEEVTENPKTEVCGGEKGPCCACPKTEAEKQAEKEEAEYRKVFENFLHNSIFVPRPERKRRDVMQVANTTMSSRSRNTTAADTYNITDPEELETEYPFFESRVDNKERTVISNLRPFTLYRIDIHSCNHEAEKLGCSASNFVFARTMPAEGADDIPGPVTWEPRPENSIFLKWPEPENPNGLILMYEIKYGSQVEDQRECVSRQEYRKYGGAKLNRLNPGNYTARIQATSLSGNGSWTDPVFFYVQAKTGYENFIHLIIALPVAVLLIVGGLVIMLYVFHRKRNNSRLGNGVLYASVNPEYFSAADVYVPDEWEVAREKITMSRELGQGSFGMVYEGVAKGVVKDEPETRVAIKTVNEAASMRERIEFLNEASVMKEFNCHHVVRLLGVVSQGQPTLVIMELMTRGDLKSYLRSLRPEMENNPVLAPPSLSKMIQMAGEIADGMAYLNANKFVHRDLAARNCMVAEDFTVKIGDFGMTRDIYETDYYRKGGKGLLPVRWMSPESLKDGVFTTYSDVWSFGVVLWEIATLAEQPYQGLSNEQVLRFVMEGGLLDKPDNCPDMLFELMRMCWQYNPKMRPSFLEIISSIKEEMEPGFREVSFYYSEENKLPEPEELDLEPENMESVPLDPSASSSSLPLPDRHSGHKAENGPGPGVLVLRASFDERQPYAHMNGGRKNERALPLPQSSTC
T1 sequence (P08069 957-1367): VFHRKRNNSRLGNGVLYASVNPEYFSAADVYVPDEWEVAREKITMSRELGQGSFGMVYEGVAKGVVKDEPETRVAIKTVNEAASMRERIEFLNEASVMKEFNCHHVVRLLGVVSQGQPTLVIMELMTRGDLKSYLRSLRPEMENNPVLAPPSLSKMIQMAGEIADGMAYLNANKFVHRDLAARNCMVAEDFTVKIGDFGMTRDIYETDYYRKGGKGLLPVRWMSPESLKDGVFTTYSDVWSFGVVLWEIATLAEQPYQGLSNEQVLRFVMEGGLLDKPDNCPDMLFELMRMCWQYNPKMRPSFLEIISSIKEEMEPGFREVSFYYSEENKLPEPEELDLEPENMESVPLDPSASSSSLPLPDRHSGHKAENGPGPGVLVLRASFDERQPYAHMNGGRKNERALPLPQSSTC
Description for human IR (hIR): Reaction buffer (50 mM HEPES buffer, pH 7.5; 10 mM MgCl2; 3 mM DTT; 1 mM CHAPS; 0.1 mg/mL BSA) for peptide phosphorylation (10 μl volume) contained, in final concentrations, 500 nM biotinylated peptide substrate; 10 μM ATP; and purified, activated hIGF1R or hIR (0.5 nM). Some compounds were initially assayed against IGF1R in buffer without DTT or CHAPS. […] Compounds, titrated in DMSO, are evaluated at eleven concentrations ranging from 50 μM to 0.2 nM. […] Reactions are incubated for 1 hour at room temperature and are stopped by a 5 μl addition of EDTA (to 33 mM). A further addition of 5 μl detection reagents (for final 7 nM Streptavidin-APC (PerkinElmer #CR130-150), 1 nM Europium-labeled anti-phosphotyrosine monoclonal antibody (PerkinElmer #AD0067), added in reaction buffer (without DTT), is required for signal generation. After 30 minutes, signal is read on PerkinElmer Viewlux microplate imager or Wallac Victor fluorometer.
The data for compound concentration responses were plotted as % Inhibition, calculated with the data reduction formula 100*(1-[(U1-C2)/(C1-C2)]), versus concentration of compound, where • U is the unknown value, • C1 is the average control value obtained for DMSO only, and
C2 is the average control value obtained for reactions stopped with EDTA at t=0.

Regarding `COc1cc(N2CCN(S(C)(=O)=O)CC2)c(C)cc1Nc1nccc(-c2c(-c3ccc(OC)c(C(=O)Nc4c(F)cccc4F)c3)nc3ccccn23)n1` [Example 225, N-(2,6-difluorophenyl)-5-{3-[2-({5-methyl-2-(methyloxy)-4-[4-(methylsulfonyl)-1-piperazinyl]phenyl}amino)-4-pyrimidinyl]imidazo[1,2-a]pyridin-2-yl}-2-(methyloxy)benzamide], the IC50 was below 0.1 µM on human IGF1R (hIGF1R); below 0.1 µM in experiment [1]; below 0.1 µM at human IR (hIR); below 0.1 µM in experiment [2]; below 0.25 µM in the experiment on COLO205 (colon); below 0.25 µM in experiment [3].

Take `CCOc1ccc(-c2nc3ccccn3c2-c2ccnc(Nc3cc(CC)c(N4CCC(N5CCN(S(C)(=O)=O)CC5)CC4)cc3OC)n2)cc1C(=O)Nc1c(F)cccc1F` [Example 206, N-(2,6-difluorophenyl)-5-(3-{2-[(5-ethyl-2-(methyloxy)-4-{4-[4-(methylsulfonyl)-1-piperazinyl]-1-piperidinyl}phenyl)amino]-4-pyrimidinyl}imidazo[1,2-a]pyridin-2-yl)-2-(ethyloxy)benzamide]: the “IGF-1R pIC50” value on human IGF1R (hIGF1R) is “++ (at least one average pIC50 measurement greater than 6 against the kinase tested but no average measurement greater than pIC50 of 7)”. Further, the IC50 in experiment [1] was below 0.1 µM; in experiment [2] it was below 0.1 µM; with COLO205 (colon) it was below 0.25 µM; in experiment [3], below 0.25 µM. Further, the “IR pIC50” value at human IR (hIR) is on record as “++ (at least one average pIC50 measurement greater than 6 against the kinase tested but no average measurement greater than pIC50 of 7)”.

Regarding `CCOc1cc(N2CCC(CCS(C)(=O)=O)CC2)c(C)cc1Nc1nccc(-c2c(-c3ccc(OC(C)C)c(C(=O)Nc4c(F)cccc4F)c3)nc3ccccn23)n1` [Example 215], the “IGF-1R pIC50” value at human IGF1R (hIGF1R) is on record as “++ (at least one average pIC50 measurement greater than 6 against the kinase tested but no average measurement greater than pIC50 of 7)”. Also, the IC50 is below 0.1 µM in experiment [1], below 0.1 µM in experiment [2], below 0.25 µM in the experiment on COLO205 (colon) and below 0.25 µM in experiment [3]. Also, at human IR (hIR), the “IR pIC50” value was “++ (at least one average pIC50 measurement greater than 6 against the kinase tested but no average measurement greater than pIC50 of 7)”.

As for `COc1cc(N2CCC(CCS(C)(=O)=O)CC2)c(C)cc1Nc1nccc(-c2c(-c3ccc(OC(C)C)c(C(=O)Nc4c(F)cccc4F)c3)nc3ccccn23)n1` [Example 214, N-(2,6-difluorophenyl)-2-[(1-methylethyl)oxy]-5-(3-{2-[(5-methyl-2-(methyloxy)-4-{4-[2-(methylsulfonyl)ethyl]-1-piperidinyl}phenyl)amino]-4-pyrimidinyl}imidazo[1,2-a]pyridin-2-yl)benzamide], the “IGF-1R pIC50” value at human IGF1R (hIGF1R) was “++ (at least one average pIC50 measurement greater than 6 against the kinase tested but no average measurement greater than pIC50 of 7)”. Further, the IC50 in experiment [1] was below 0.1 µM; in experiment [2] it was below 0.1 µM; in the experiment with COLO205 (colon) it was below 0.25 µM; in experiment [3] it was below 0.25 µM.

For `CCOc1ccc(-c2nc3ccccn3c2-c2ccnc(Nc3cc(CC)c(N4CCC(CCS(C)(=O)=O)CC4)cc3OC)n2)cc1C(=O)Nc1c(F)cccc1F` [Example 209, N-(2,6-difluorophenyl)-5-(3-{2-[(5-ethyl-2-(methyloxy)-4-{4-[2-(methylsulfonyl)ethyl]-1-piperidinyl}phenyl)amino]-4-pyrimidinyl}imidazo[1,2-a]pyridin-2-yl)-2-(ethyloxy)benzamide], the “IGF-1R pIC50” value at human IGF1R (hIGF1R) is “++ (at least one average pIC50 measurement greater than 6 against the kinase tested but no average measurement greater than pIC50 of 7)”. Besides, the IC50 in experiment [1] is below 0.1 µM; in experiment [2] it was below 0.1 µM; in the experiment with COLO205 (colon) it was below 0.25 µM; in experiment [3], below 0.25 µM.

As for `CCOc1cc(N2CCC(CCS(C)(=O)=O)CC2)c(C)cc1Nc1nccc(-c2c(-c3ccc(OCC)c(C(=O)Nc4c(F)cccc4F)c3)nc3ccccn23)n1` [Example 217, N-(2,6-difluorophenyl)-2-(ethyloxy)-5-(3-{2-[(2-(ethyloxy)-5-methyl-4-{4-[2-(methylsulfonyl)ethyl]-1-piperidinyl}phenyl)amino]-4-pyrimidinyl}imidazo[1,2-a]pyridin-2-yl)benzamide], the “IGF-1R pIC50” value on human IGF1R (hIGF1R) is reported as “++ (at least one average pIC50 measurement greater than 6 against the kinase tested but no average measurement greater than pIC50 of 7)”. Also, the IC50 is below 0.1 µM in experiment [1], below 0.1 µM in experiment [2], below 0.25 µM in the experiment on COLO205 (colon) and below 0.25 µM in experiment [3].

For `CCOc1cc(CCN2CCN(C)CC2)ccc1Nc1nccc(-c2c(-c3ccc(OC)c(C(=O)Nc4c(F)cccc4F)c3)nc3ccccn23)n1` [Example 146, N-(2,6-difluorophenyl)-5-{3-[2-({2-(ethyloxy)-4-[2-(4-methyl-1-piperazinyl)ethyl]-phenyl}amino)-4-pyrimidinyl]imidazo[1,2-a]pyridin-2-yl}-2-(methyloxy)benzamide], the IC50 at human IGF1R (hIGF1R) is below 0.1 µM; in experiment [1], above 0.5 µM; at human IR (hIR), below 0.1 µM; in experiment [2] it was above 0.5 µM; in the experiment on COLO205 (colon) it was 0.25 to 1 µM.

As for `CCOc1cc(CCN2CCN(C)CC2)ccc1Nc1nccc(-c2c(-c3cccc(C(=O)Nc4c(F)cccc4F)c3)nc3ccccn23)n1` [Example 147, N-(2,6-difluorophenyl)-3-{3-[2-({2-(ethyloxy)-4-[2-(4-methyl-1-piperazinyl)ethyl]-phenyl}amino)-4-pyrimidinyl}imidazo[1,2-a]pyridin-2-yl]benzamide], the IC50 at human IGF1R (hIGF1R) was below 0.1 µM; in experiment [1], below 0.1 µM; at human IR (hIR), below 0.1 µM; in experiment [2], below 0.1 µM; with COLO205 (colon), above 1 µM.
